Reference: US12077503B2, “Substituted cyclic amides and their use as herbicides” (FMC CORPORATION, priority 2015, dated 2024)

How the values were obtained:
Assay type in all cases: in vivo
[1] = test system: barnyardgrass (Echinochloa crus-galli); assay: Test A preemergence; conditions: Echinochloa crus-galli, pre-emergence, 240 h, preemergence, read-out: Barnyardgrass plant response rating
Outline: (§1)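 Visual injury, scored on a 0–100 scale relative to untreated controls, was recorded about 10 d after application. Treatments were a preemergence soil spray over planted seeds or a postemergence spray on plants at the one- to two-leaf stage, 2 to 10 cm tall, all in loam soil–sand blend in the greenhouse.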

[2] = test system: Galium (catchweed bedstraw, Galium aparine); assay: Test A postemergence; conditions: Galium, post-emergence, 240 h, 125 g ai/ha, Postemergence; visual injury after approximately 10 d; 0 to 100 scale where 0 is no effect and 100 is complete control; read-out: Plant response rating, Galium
Outline: as §1

Kochia (Kochia scoparia) = assay: Test A postemergence; conditions: Bassia scoparia, post-emergence, 240 h, 125 g ai/ha, Postemergence; visual injury after approximately 10 d; 0 to 100 scale where 0 is no effect and 100 is complete control; read-out: Plant response rating, Kochia
Outline: as §1

[3] = test system: barnyardgrass (Echinochloa crus-galli); assay: Test A postemergence; conditions: Echinochloa crus-galli, post-emergence, 240 h, 125 g ai/ha, Postemergence; visual injury after approximately 10 d; 0 to 100 scale where 0 is no effect and 100 is complete control; read-out: Plant response rating, Barnyardgrass
Outline: as §1

[4] = test system: blackgrass (Alopecurus myosuroides); assay: Test A postemergence; conditions: Alopecurus myosuroides, post-emergence, 240 h, 125 g ai/ha, Postemergence; visual injury after approximately 10 d; 0 to 100 scale where 0 is no effect and 100 is complete control; read-out: Plant response rating, Blackgrass
Outline: as §1

corn (Zea mays) = assay: Test A postemergence; conditions: Zea mays, post-emergence, 240 h, 125 g ai/ha, Postemergence; visual injury after approximately 10 d; 0 to 100 scale where 0 is no effect and 100 is complete control
Outline: as §1

[5] = test system: giant foxtail (Setaria faberii); assay: Test A postemergence; conditions: Setaria faberi, post-emergence, 240 h, 125 g ai/ha, Postemergence; visual injury after approximately 10 d; 0 to 100 scale where 0 is no effect and 100 is complete control; read-out: Plant response rating, Foxtail, Giant
Outline: as §1

[6] = test system: pigweed (Amaranthus retroflexus); assay: Test A postemergence; conditions: Amaranthus retroflexus, post-emergence, 240 h, 125 g ai/ha, Postemergence; visual injury after approximately 10 d; 0 to 100 scale where 0 is no effect and 100 is complete control; read-out: Plant response rating, Pigweed
Outline: as §1

[7] = test system: ragweed (common ragweed, Ambrosia elatior); assay: Test A postemergence; conditions: Ambrosia artemisiifolia, post-emergence, 240 h, 125 g ai/ha, Postemergence; visual injury after approximately 10 d; 0 to 100 scale where 0 is no effect and 100 is complete control; read-out: Plant response rating, Ragweed
Outline: as §1

[8] = test system: ryegrass, Italian (Italian ryegrass, Lolium multiflorum); assay: Test A postemergence; conditions: Lolium multiflorum, post-emergence, 240 h, 125 g ai/ha, Postemergence; visual injury after approximately 10 d; 0 to 100 scale where 0 is no effect and 100 is complete control; read-out: Plant response rating, Ryegrass, Italian
Outline: as §1

[9] = test system: wheat (Triticum aestivum); assay: Test A postemergence; conditions: Triticum aestivum, post-emergence, 240 h, 125 g ai/ha, Postemergence; visual injury after approximately 10 d; 0 to 100 scale where 0 is no effect and 100 is complete control; read-out: Plant response rating, Wheat
Outline: as §1

[10] = test system: barnyardgrass (Echinochloa crus-galli); assay: Test B flooded paddy test; conditions: Echinochloa crus-galli, Flood, 250 g ai/ha; scale of 0 to 100 where 0 is no effect and 100 is complete control; read-out: Barnyardgrass plant response rating
Outline: (§2)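 Response scored visually against untreated controls, 0 = no effect and 100 = complete control, 13–15 d after treatment in the greenhouse. Compounds added to paddy water held 3 cm above soil surface. Treatment given at 2-leaf stage.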

[11] = test system: ducksalad (Heteranthera limosa); assay: Test B flooded paddy test; conditions: Heteranthera limosa, Flood, 250 g ai/ha; scale of 0 to 100 where 0 is no effect and 100 is complete control; read-out: Ducksalad plant response rating
Outline: as §2

rice (Oryra sativa) = assay: Test B flooded paddy test; conditions: Oryza sativa, Flood, 250 g ai/ha; scale of 0 to 100 where 0 is no effect and 100 is complete control; read-out: Rice plant response rating
Outline: as §2

[12] = test system: sedge, umbrella (small-flower umbrella sedge, Cyperus difformis); assay: Test B flooded paddy test; conditions: Cyperus difformis, Flood, 250 g ai/ha; scale of 0 to 100 where 0 is no effect and 100 is complete control; read-out: Sedge, Umbrella plant response rating
Outline: as §2

## CN1C[C@H](c2ccc(C(F)(F)F)cc2)[C@@H](C(=O)Nc2ccc(F)cc2Br)C1=O [Compound 934]
[1]; 125 g ai/ha, 0 to 100 scale where 0 is no effect and 100 is complete control
  pest or weed control at 125 g/ha: 70%
[1]; 500 g ai/ha, visual injury rating about 10 d after treatment, 0 to 100 scale (0 no effect, 100 complete control)
  pest or weed control at 500 g/ha: 90%
[2]
  pest or weed control at 125 g/ha: 60%
Kochia (Kochia scoparia)
  pest or weed control at 125 g/ha: 20%
[3]
  pest or weed control at 125 g/ha: 60%
[4]
  pest or weed control at 125 g/ha: 0%
Corn (Zea mays)
  Corn plant response rating (crop injury, 0 = no effect, 100 = complete kill) at 125 g/ha: 20%
[5]
  pest or weed control at 125 g/ha: 90%
[6]
  pest or weed control at 125 g/ha: 20%
[7]
  pest or weed control at 125 g/ha: 0%
[8]
  pest or weed control at 125 g/ha: 0%
[9]
  plant injury at 125 g/ha: 0%
[10]
  pest or weed control at 250 g/ha: 0%
[11]
  pest or weed control at 250 g/ha: 60%
Rice (Oryra sativa)
  pest or weed control at 250 g/ha: 0%
[12]
  pest or weed control at 250 g/ha: 0%
